Source: patent EP0466030B1, “N-acyl dipeptides and their use” (DEGUSSA AG, priority 1990, dated 1992)
Where a SMILES comes first, the peptide text is derived from it. Bridges are numbered along the chain shown (N, C = ends). Roman numbers before positions name the chains, in order. The star is where a group is joined. Butyryl = CCCC(=O)*

Tests used:
[1] = system: L1210 Mäuse-Leukaemiezellen; experiment: Comparative cell growth experiment with supplemented culture medium; type: cell-based; conditions: for Zellwachstum: comparison among the three supplements L-Glutamin, L-Alanyl-L-glutamin, N-Acetyl-L-alanyl-L-glutamin; for Wachstum im Vergleich zum glutaminfreien Medium: supplemented medium versus glutamine-free medium
From the text: Weiterhin wurde überraschend festgestellt, daß N-Acyldipeptide als Quelle für die C-terminalen Aminosäuren in Nährmedien für Zellkulturen dienen können.

[2] = Cleavage of the substrate by pig kidney homogenate (decrease of substrate followed by HPLC); type: in vitro ADME, Schwein; conditions: for spezifische Aktivität des Nierenhomogenisats: 1 ml supernatant + 1 ml 0,1 M Tris/HCl (pH 7) + 1 ml 30 mM substrate solution, 37°C, HPLC; for schneller als N-Acetyl-L-tyrosin gespalten: in vitro, Schweinenierenhomogenisat, rate relative to N-Acetyl-L-tyrosin
Method: 0,1 Mol L-Alanyl-L-tyrosin wurden in 50 ml 2N Natronlauge gelöst. Bei 0°C wurden 0,11 Mol Acetanhydrid in 18 ml Tetrahydrofuran und 27,5 ml 4N Natronlauge so zugetropft, daß der pH-Wert des Reaktionsgemisches stets bei etwa 11 lag. Nach Beendigung der Zugabe wurde 1 Stunde lang nachgerührt, dann mit konzentrierter Salzsäure auf pH 1 angesäuert und das Volumen der Lösung auf die Hälfte eingeengt. Das N-Acetyl-L-alanyl-L-tyrosin kristallisierte aus, wurde abfiltriert, mit Wasser gewaschen und getrocknet. […] 1 ml des nach 30-minütiger Zentrifugation bei 10000 U/min erhaltenen Überstandes wurden mit 1 ml 0,1 M Tris/HCl (pH 7)-Puffer und 1 ml einer 30 mM Lösung des Substrates in 0,1 M Tris/HCl (pH7)-Puffer versetzt und bei 37°C inkubiert. Die zeitliche Abnahme der Substratkonzentration wurde durch HPLC verfolgt.

[3] = Ratten; Z. Ernährungswiss. 28 (1989), 32 - 35; cited from earlier work
[4] = system: L1210 Mäuse-Leukaemiezellen; conditions: general statement on cells, no source or experiment given; cited from earlier work

## NC(=O)CC[C@H](N)C(=O)O [L-Glutamin]
[1]
  Zellwachstum: kein signifikanter Unterschied
  Wachstum im Vergleich zum glutaminfreien Medium: deutlich erhöhtes Wachstum

## CCCC(=O)N[C@@H](C)C(=O)N[C@@H](Cc1ccc(O)cc1)C(=O)O [N-Butyryl-L-alanyl-L-tyrosin] (Butyryl-Ala-Tyr-OH)
[2]
  spezifische Aktivität des Nierenhomogenisats: 660 nMol pro Minute und g Niere
  schneller als N-Acetyl-L-tyrosin gespalten: 15 mal

## CC(=O)NCC(=O)N[C@@H](CSSC[C@H](NC(=O)CNC(C)=O)C(=O)O)C(=O)O [Bis-(acetylglycyl)-L,L-cystin] (I: Ac-Gly-Cys-OH / II: Ac-Gly-Cys-OH; disulfide I:2-II:2)
[3]
  Eignung als Cysteinquelle bei der parenteralen Ernährung: nicht als Cysteinquelle geeignet

## CC(=O)N[C@@H](C)C(=O)N[C@@H](Cc1ccc(O)cc1)C(=O)O [N-Acetyl-L-alanyl-L-tyrosin] (Ac-Ala-Tyr-OH)
[2]
  spezifische Aktivität des Nierenhomogenisats: 420 nMol pro Minute und g Niere
  schneller als N-Acetyl-L-tyrosin gespalten: 10 mal

## CC(=O)N[C@@H](C)C(=O)N[C@@H](CCC(N)=O)C(=O)O [N-Acetyl-L-alanyl-L-glutamin] (Ac-Ala-Gln-OH)
[1]
  Zellwachstum: kein signifikanter Unterschied
  Wachstum im Vergleich zum glutaminfreien Medium: deutlich erhöhtes Wachstum
[1]; utilisation by L1210 cells as glutamine source
  von den Zellen verwertet: sehr gut verwertet

## C[C@H](N)C(=O)N[C@@H](CCC(N)=O)C(=O)O [L-Alanyl-L-glutamin] (H-Ala-Gln-OH)
[1]
  Zellwachstum: kein signifikanter Unterschied
  Wachstum im Vergleich zum glutaminfreien Medium: deutlich erhöhtes Wachstum

## CC(=O)N[C@@H](CCC(N)=O)C(=O)O [N-Acetyl-L-glutamin]
[4]
  von Zellen genutzt: nicht oder nur sehr schlecht genutzt
